Our source for the IC50 values is US7799803B2, “Hydroxamic acid compounds and methods of use thereof” (The Trustees of Columbia University in the City of New York, priority 2003, dated 2010).

The target in assay [1] is T1, histone deacetylase, subtype 1 (HDAC1) (Homo sapiens, UniProt Q13547).
T1 construct: Flag; made in house
Kind of assay: HDAC1-Flag in vitro deacetylation assay. The class given is biochemical. As for the experimental part: Novel compounds were tested for their ability to inhibit histone deacetylase, subtype 1 (HDAC1) using an in vitro deacetylation assay. The enzyme source for this assay was an epitope-tagged human HDAC1 complex immuno-purified from stably expressing mammalian cells. The substrate consisted of a commercial product containing an acetylated lysine side chain (Biomol, Plymouth Meeting, Pa.). Upon deacetylation of the substrate by incubation with the purified HDAC1 complex, a fluorophore is produced that is directly proportional to the level of deacetylation. Using a substrate concentration at the Km for the enzyme preparation, the deacetylation assay was performed in the presence of increasing concentrations of novel compounds to semi-quantitatively determine the concentration of compound required for 50% inhibition (IC50) of the deacetylation reaction.

Assay [2] deals with human bladder carcinoma cell line, T24. Kind of assay: T24 cell-based proliferation assay. The conditions noted are these: T-24, T24 cells treated 72 hours, DNA quantitated with bisbenzamide, Table 3, read-out: Cell Growth Inhbition, IC50. As for the experimental part: Proliferation The novel compounds of the present invention were tested for their ability to inhibit growth of the human bladder carcinoma cell line, T24. Cells were treated with compounds for 72 hours, lysed by freeze/thaw to expose the DNA, and then the DNA was quantitated using the intercalating dye, bisbenzamide (Sigma). Fluorescent intensity (ex 350λ em 460λ) was directly proportional to the number of cells per well. Fluorescence values from vehicle-treated cells were determined and used as 100%.

Setting [3] is: epitope-tagged human HDAC1 complex, substrate concentration at Km, Table 2, read-out: HDAC Inhibition IC50.
Where [4] appears, read: Table 4, additional compounds, n = 2, read-out: HDAC inhibition IC50.

Where two headings read alike, the source gives them in different places.

T1 sequence (Q13547 whole entry): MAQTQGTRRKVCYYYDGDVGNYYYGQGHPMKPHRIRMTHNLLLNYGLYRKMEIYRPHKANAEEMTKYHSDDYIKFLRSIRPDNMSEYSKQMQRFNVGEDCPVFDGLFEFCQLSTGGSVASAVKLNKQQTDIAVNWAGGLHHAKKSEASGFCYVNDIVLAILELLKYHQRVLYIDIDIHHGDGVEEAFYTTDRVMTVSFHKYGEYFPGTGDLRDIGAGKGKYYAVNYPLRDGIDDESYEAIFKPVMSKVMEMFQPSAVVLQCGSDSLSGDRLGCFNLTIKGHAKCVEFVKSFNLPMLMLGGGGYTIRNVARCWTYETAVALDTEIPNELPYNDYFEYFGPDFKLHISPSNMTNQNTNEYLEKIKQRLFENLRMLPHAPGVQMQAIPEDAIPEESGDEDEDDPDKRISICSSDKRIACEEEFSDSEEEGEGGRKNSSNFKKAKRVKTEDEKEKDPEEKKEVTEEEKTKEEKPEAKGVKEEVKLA

Take `O=C(CCCCC[C@H](NC(=O)OCc1ccccc1)C(=O)NCc1ccccc1)NO` [Compound 2]: the values for the half-maximal inhibitory concentration (IC50) in assay [1] (setting [3]) and in assay [2] were 37.4 nM and 1400 nM, respectively.
For `O=C(CCCCC[C@H](NC(=O)c1ccc2ccccc2n1)C(=O)NCc1ccccc1)NO` [Compound 3], in that order: 52.7 nM and 1700 nM.
As to `O=C(CCCCC[C@H](NC(=O)c1ccccc1)C(=O)NCc1ccccc1)NO` [Compound 4], the IC50 in assay [1] (setting [3]) was determined as 73 nM; in assay [2], 3200 nM.
The like results for `O=C(CCCCC[C@H](NC(=O)c1cccnc1)C(=O)NCc1ccccc1)NO` [Compound 5] were, in that order, 150 nM and 9200 nM.
Take `O=C(CCCCC[C@H](NC(=O)OCc1ccccc1)C(=O)Nc1ccc2ncccc2c1)NO` [Compound 6a, (S)-[6-HYDROXYCARBAMOYL-1-(QUINOLIN-6-YLCARBAMOYL)-HEXYL]-CARBAMIC ACID BENZYL ESTER]: the IC50 was found to be 5.9 nM in assay [1] (setting [3]) and 200 nM in assay [2].
Take `O=C(CCCCC[C@H](NC(=O)c1ccccc1)C(=O)Nc1ccc2ncccc2c1)NO` [Compound 6b, (2S)-2-BENZOYLAMINO-OCTANEDIOIC ACID 8-HYDROXYAMIDE 1-QUINOLIN-6-YLAMIDE]: the half-maximal inhibitory concentration (IC50) in assay [1] (setting [3]) was determined as 1.8 nM; in assay [2], 200 nM.
Take `O=C(CCCCC[C@H](NC(=O)c1ccc2ccccc2n1)C(=O)Nc1ccc2ncccc2c1)NO` [Compound 7]: the results for the IC50 in assay [1] (setting [3]) and in assay [2] were 54.5 nM and 600 nM, respectively.
For `O=C(CCCCC[C@H](NC(=O)c1cccnc1)C(=O)Nc1ccc2ncccc2c1)NO` [Compound 8], the IC50 in assay [1] (setting [3]) stood at 1.6 nM; in assay [2] it was 1800 nM.
Consider `O=C(CCCCC[C@H](NC(=O)c1cccnc1)C(=O)Nc1cccc2cccnc12)NO` [Compound 9], for which the IC50 in assay [1] (setting [3]) is 4.1 nM; in assay [2], 400 nM.
For `O=C(CCCCC[C@H](NC(=O)c1ccc2ccccc2n1)C(=O)Nc1cccc2cccnc12)NO` [Compound 10], in that order: 41.8 nM and 1400 nM.
For `O=C(CCCCC[C@H](NC(=O)c1ccccc1)C(=O)Nc1cccc2cccnc12)NO` [Compound 11], in that order: 12.7 nM and 300 nM.
With `O=C(CCCCCC(C(=O)NCc1ccccc1)C(=O)NCc1ccccc1)NO` [Compound 12], the IC50 in assay [1] (setting [4]) was found to be 156 ± 22.6 nM.
Still for that read-out and setting: next, `O=C(CCCCCC(C(=O)NCCc1ccccc1)C(=O)NCCc1ccccc1)NO` [Compound 13]: 186 ± 21.9 nM.
